≈ marks a conversion by molar mass, not a printed value.
Legend:
Influenza A virus H3N2 = experiment: Antiviral activity against Influenza A virus H3N2 A3/JINGKE/30/95 infected in MDCK cells assessed as inhibition of virus-induced cytopathic effect after 72 hrs; type: functional, organism-based
[1] = (§1) Cytotoxicity against MDCK cells after 72 hrs by MTT assay; type: cell-based, Canis lupus familiaris; details: dog, MDCK cells; read-out: TC50
MDCK = experiment: as §1; type: cell-based, Canis lupus familiaris; details: dog, mdck, 72 h
[2] = Therapeutic index, ratio of TC50 for MDCK cells to IC50 for Influenza A virus H3N2 A3/JINGKE/30/95; type: cell-based; details: dog, read-out: TI
[3] = Influenza A virus, A3/JINGKE/30/95, MDCK, 72 h, read-out: IC50

Row | Structure (SMILES) | IC50 (Influenza A virus H3N2; mdck) | CC50 at 72 h [1] | IC50 (Influenza A virus H3N2; [3]) | TC50 (MDCK) | selectivity ratio [2]
1 | C[C@@]1(CO)[C@H](O)CC[C@@]2(C)C(CCC3=CCOC3=O)=C(Cn3ccc(=O)[nH]c3=O)CC[C@H]12 | Not Active | > 200 µg/mL | – | – | –
2 | C[C@@]1(CO)[C@H](O)CC[C@@]2(C)C(CCC3=CCOC3=O)=C(CNC34CC5CC(CC(C5)C3)C4)CC[C@H]12 | Not Active | > 200 µg/mL | – | – | –
3 | C[C@]1(CO)[C@H]2CC=C(Cn3ccc(=O)[nH]c3=O)[C@@H](CCC3=CCOC3=O)[C@]2(C)CC[C@H]1O | – | – | 192 µg/mL (≈ 431 µM) | Non-toxic | –
4 | C[C@]1(CO)[C@H]2CC=C(Cn3ccnc3)[C@@H](CCC3=CCOC3=O)[C@]2(C)CC[C@H]1O | – | 212 µg/mL (≈ 529 µM) | 201 µg/mL (≈ 502 µM) | – | 1.05
5 | C[C@]1(CO)[C@H]2CC=C(Cn3cnc4ncnc(N)c43)[C@@H](CCC3=CCOC3=O)[C@]2(C)CC[C@H]1O | – | 524 µg/mL (≈ 1120 µM) | 192 µg/mL (≈ 411 µM) | – | 2.72
6 | C[C@]1(CO)[C@H]2CC=C(Cn3cccn3)[C@@H](CCC3=CCOC3=O)[C@]2(C)CC[C@H]1O | Not Active | 122 µg/mL (≈ 305 µM) | – | – | –
7 | C[C@]1(CO)[C@H]2CC=C(Cn3cncn3)[C@@H](CCC3=CCOC3=O)[C@]2(C)CC[C@H]1O | Not Active | – | – | Non-toxic | –
8 | C[C@@]1(CO)[C@H](O)CC[C@@]2(C)C(CCC3=CCOC3=O)=C(CN3CCOCC3)CC[C@H]12 | Not Active | > 200 µg/mL | – | – | –
9 | C[C@]1(CO)[C@H]2CC=C(Cn3ccc(N)nc3=O)[C@@H](CCC3=CCOC3=O)[C@]2(C)CC[C@H]1O | – | 491 µg/mL (≈ 1110 µM) | 186 µg/mL (≈ 419 µM) | – | 2.64
10 | C[C@]1(CO)[C@H]2CC=C(CN3CCOCC3)[C@@H](CCC3=CCOC3=O)[C@]2(C)CC[C@H]1O | Not Active | – | – | Non-toxic | –
11 | C[C@]1(CO)[C@H]2CC=C(CNCc3ccccc3)[C@@H](CCC3=CCOC3=O)[C@]2(C)CC[C@H]1O | – | 965 µg/mL (≈ 2190 µM) | 122 µg/mL (≈ 277 µM) | – | 7.91
12 | Cc1cn(CC2=C(CCC3=CCOC3=O)[C@]3(C)CC[C@@H](O)[C@@](C)(CO)[C@H]3CC2)c(=O)[nH]c1=O | Not Active | > 200 µg/mL | – | – | –
13 | C[C@@]1(CO)[C@H](O)CC[C@@]2(C)C(CCC3=CCOC3=O)=C(Cn3cncn3)CC[C@H]12 | Not Active | > 200 µg/mL | – | – | –
14 | Cc1cn(CC2=CC[C@@H]3[C@](C)(CO)[C@H](O)CC[C@@]3(C)[C@@H]2CCC2=CCOC2=O)c(=O)[nH]c1=O | – | – | 201 µg/mL (≈ 438 µM) | Non-toxic | –
15 | C[C@]1(CO)[C@H]2CC=C(CNC34CC5CC(CC(C5)C3)C4)[C@@H](CCC3=CCOC3=O)[C@]2(C)CC[C@H]1O | – | 2380 µg/mL (≈ 4910 µM) | 161 µg/mL (≈ 332 µM) | – | 14.8
16 | C[C@@]1(CO)[C@H](O)CC[C@@]2(C)C(CCC3=CCOC3=O)=C(Cn3ccnc3)CC[C@H]12 | Not Active | > 200 µg/mL | – | – | –
17 | C[C@@]1(CO)[C@H](O)CC[C@@]2(C)C(CCC3=CCOC3=O)=C(CNCc3ccccc3)CC[C@H]12 | Not Active | > 200 µg/mL | – | – | –
18 | C[C@@]1(CO)[C@H](O)CC[C@@]2(C)C(CCC3=CCOC3=O)=C(Cn3ccc(N)nc3=O)CC[C@H]12 | Not Active | > 200 µg/mL | – | – | –
19 | C=C1CC[C@@H]2[C@](C)(CO)[C@H](O)CC[C@@]2(C)[C@@H]1CC(C1=CCOC1=O)S(=O)(=O)[O-].[Na+] (some centres not stated) | – | 2280 µg/mL | 176 µg/mL | – | 12.9
20 | C[C@@]12CC[C@@H](O)[C@@](C)(CO)C1CCC(CO)=C2CCC1=CCOC1=O (single isomer, unassigned) | Not Active | 124 µg/mL (≈ 355 µM) | – | – | –
21 | C[C@]1(CO)C2CC=C(CO)[C@@H](CCC3=CCOC3=O)[C@]2(C)CC[C@H]1O (single isomer, unassigned) | – | 678 µg/mL (≈ 1940 µM) | 197 µg/mL (≈ 562 µM) | – | 3.44
22 | NC(=O)c1ncn([C@@H]2O[C@H](CO)[C@@H](O)[C@H]2O)n1 [RIBAVIRIN] | – | 3280 µg/mL (≈ 13400 µM) | 87.7 µg/mL (≈ 359 µM) | – | 37.4

Source: ChEMBL document CHEMBL3751821, “The semi-synthesis of novel andrographolide analogues and anti-influenza virus activity evaluation of their derivatives” (Bioorg Med Chem Lett, 2016)
